Experimental data reported in article PMC5424110, “Preclinical anti-arthritic study and pharmacokinetic properties of a potent histone deacetylase inhibitor MPT0G009” (Cell Death & Disease, 2014).
Entries after “also recorded” stand apart in the source; their conditions may differ. Where two headings read alike, the source gives them in different places.

Columns and labels:
rat AIA model = assay: In vivo adjuvant-induced arthritis (AIA) model; details: day 21, ELISA, MPT0G009 25 mg/kg, SAHA 200 mg/kg, indomethacin 1 mg/kg
Method: Next, we evaluated the in vivo anti-arthritic effects of MPT0G009 in a rat AIA model. […] The inhibition of synoviocytes proliferation and inflammation by MPT0G009 treatment was also observed (Supplementary Figure 1).
Figure 5 MPT0G009 inhibits the development of arthritis in an AIA model. […] Subsequently, swelling of both hind paws was photographed. (b) Hind paw volumes in the indicated group of rats were measured using a digital plethysmometer on the indicated day after AIA induction. (c) Arthritis scores on day 21. (d) Serum levels of interleukin (IL)-1β (left panel) and IL-6 (right panel) on day 21 as measured by enzyme-linked immunosorbent assay (ELISA). (e) Top five rows: photomicrographs of ankle joint sections from the different groups stained with hematoxylin and eosin, safranin O, immunohistochemically stained with an anti-acetyl H3 antibody or TRAP stain. Arrows indicate osteoblasts (OB); arrowheads indicate osteoclasts (OC). Bottom panels: micro-CT results (arrows indicate bone erosion). (f) The BMD (in mg/mm^3) and the BMC (in mg) values for the bone tissue of the tarsus were analyzed using CT Analysis Software.
Five-week-old male Lewis rats were obtained from the National Laboratory Animal Center (Taipei, Taiwan). Complete Freund's adjuvant (CFA) was prepared by suspending heat-killed Mycobacterium butyricum (Difco, Sparks, MD, USA) in mineral oil at 3 mg/ml. CFA-induced arthritis was induced by intradermal injection of 100 μl of the CFA emulsion into the base of the right hind paw on day 0. […] On days 0, 2, 6, 9, 13, 17 and 21, the animals were weighed and both hind paw volumes measured using a digital plethysmometer (Diagnostic & Research Instruments Co. Ltd, Taipei, Taiwan). On day 21, micro-CT of the paws was performed by the Core Facilities Center of the National Research Program for Biopharmaceuticals using an in vivo micro-CT scanner (Skyscan 1176, Bruker Corp., Kontich, Belgium) at 18 μm resolution and 180° scanning with a rotation step of 0.8° per image, 300 ms integration time, 70 keV photon energy and 350 μA current. The reconstructed volumes from micro-CT scans were analyzed by CT Analysis Software (CTAn, Bruker Corp.). Quantification of volumetric BMD and bone volume (BV) was performed in a defined bone area ranging 12 mm from tarsals to the end of the calcaneus. The BMC was described by the product of BV and BMD. On day 21, the rats were killed and specimens from the phalanges and ankle joints stained with hematoxylin–eosin or safranin O for histopathological assessment by the National Laboratory Animal Center. Intensity of arthritis was scored as described previously from 0 to 4.[19] All four legs were scored, so the highest possible arthritic score was 16.

[1] = parameters: method as in PMID 17473456; details: rat, cited from earlier work
HIG-82 synoviocytes = assay: Cell proliferation assay (SRB), HIG-82 synoviocytes; format: cell-based, rabbit; details: 24 or 48 h
[2] = system: histone H3 acetylation in HIG-82 synoviocytes; assay: Western blot of acetyl histone H3, HIG-82 cells; format: cell-based, rabbit; details: 3 μM MPT0G009 or 60 μM SAHA, 6, 12 or 24 h, starting at 6 h
[3] = system: histone H3 acetylation and HDAC3 in RA-FLS; assay: Western blot of acetyl histone H3 and HDAC isoforms, RA-FLS; format: cell-based, human
Method: Then, cells were harvested and cell lysates were prepared for western blot analysis of the indicated proteins. (c) RA-FLSs were incubated for 1 h with or without the proteasome inhibitor, MG132 (1 μM). […] Results shown are representative of three independent experiments.

RA-FLS [4] = assay: Cell proliferation assay (SRB), RA-FLS; format: cell-based, human; details: 24 or 48 h
RAW264.7 macrophages = assay: Osteoclast differentiation assay (TRAP stain), M-CSF/RANKL-induced; format: cell-based, mouse; details: RAW264.7, M-CSF/RANKL 50 ng/ml 5 days; 5 nM MPT0G009 or 50 nM SAHA
Method: Osteoclast formation was measured by quantifying cells stained for the osteoclast marker TRAP using an acid phosphatase kit (387-A; Sigma-Aldrich). Briefly, the specimens were fixed for 30 s in fixative solution (25.5% citrate solution, 66.3% acetone, 8.2% of 37% formaldehyde), then incubated for 1 h at 37 °C with a mixture of the provided naphthol AS-BI phosphate and tartrate solutions, followed by counterstaining with hematoxylin solution. Osteoclasts were counted as TRAP-positive multinuclear (>3 nuclei) cells using light microscopy. The morphological features of osteoclasts were also photographed.

RAW264.7 cells = assay: Inflammatory mediator production by LPS-stimulated RAW264.7 cells; format: cell-based, mouse; details: RAW264.7, LPS 25 ng/ml 24 h; MPT0G009 0.1, 1 or 10 μM; SAHA 0.3, 3 or 30 μM
Method: (§1) (a) Structure of MPT0G009.
(§2) These supernatants were then assayed for prostaglandin E2 (PGE2), NO and IL-6.

[5] = system: RA fibroblast-like synoviocyte (RA-FLS); assay: Inflammatory mediator production by stimulated RA-FLS; format: cell-based, human; details: MPT0G009 0.1, 1 or 10 μM, SAHA 0.3, 3 or 30 μM
Method: as §1, §2

p21 in RA-FLS = assay: p21 expression in RA-FLS by flow cytometry
Method: After three washes with FACS washing buffer, the fluorescence of the cells was analyzed on a FACScan flow cytometer (BD Biosciences). […] They were then incubated for 30 min at room temperature with 0.2 ml of DNA extraction buffer (0.2 M Na2HPO4 and 0.1 M citric acid buffer, pH 7.8), resuspended in 1 ml of propidium iodide staining buffer (0.1% Triton X-100, 100 μg/ml of RNase A and 80 μg/ml of propidium iodide in PBS), incubated at 37 °C for 30 min in the dark, sorted by FACScan, and analyzed using CellQuest software (BD Biosciences).

RA-FLS [6] = assay: Cell cycle distribution by propidium iodide flow cytometry; format: cell-based, human; details: RA-FLS 24 h, MPT0G009 1–1000 nM, SAHA 3–3000 nM
[7] = system: CD51/61 on RAW264.7 cells; assay: Osteoclast-specific marker CD51/61 by flow cytometry; details: RAW264.7, M-CSF/RANKL; 5 nM MPT0G009 or 50 nM SAHA
Method: Subsequently, multinucleate tartrate-resistant acid phosphatase (TRAP)-positive cells were counted.
Cells were then TRAP stained, and the numbers of TRAP-positive multinuclear cells were counted. […] Images are at × 100 magnification, and the arrows indicate differentiated osteoclasts.
Cells were then TRAP stained, and the numbers of TRAP-positive multinuclear cells were counted (d) or were incubated with a FITC-conjugated anti-CD51/61 antibody and analyzed by flow cytometry (e).
After three washes with FACS washing buffer, the fluorescence of the cells was analyzed on a FACScan flow cytometer (BD Biosciences).

COc1ccc2c(c1)c(CC(=O)O)c(C)n2C(=O)c1ccc(Cl)cc1 [indomethacin, reference compound]
serum levels of IL-1β (rat AIA model): significant decreases | serum levels of IL-6 (rat AIA model): significant decreases

O=C(CCCCCCC(=O)Nc1ccccc1)NO [SAHA, suberoylanilide hydroxamic acid, reference compound]
AUC(0-inf) ([1]; i.v. 2 mg/kg): 278 ng·h/mL | CL ([1]; i.v. 2 mg/kg): 134 mL/min/kg | T1/2 ([1]; i.v. 2 mg/kg): 38.4 min | Vd ([1]; i.v. 2 mg/kg): 3.92 L/kg | AUC(0-inf) ([1]; p.o. 5 mg/kg): 49.40 ng·h/mL | Cmax ([1]; p.o. 5 mg/kg): 83.90 ng/mL | F (oral bioavailability) ([1]; p.o. 5 mg/kg): 6.9% | T1/2 ([1]; p.o. 5 mg/kg): 67.8 min | Tmax ([1]; p.o. 5 mg/kg): 10.2 min | anti-proliferative effect (HIG-82 synoviocytes): concentration-dependent anti-proliferative effects | serum levels of IL-1β (rat AIA model): significant decreases | serum levels of IL-6 (rat AIA model): significant decreases | acetylation of histone H3 (Acetyl-H3) [2]: had a similar effect | acetylation of histone H3 (Acetyl-H3) ([3]; 1 μM MPT0G009 or 30 μM SAHA, 6, 12 or 24 h, starting at 12 h): had a similar effect | levels of HDAC3 ([3]; 12 or 24 h, 1 μM MPT0G009 or 30 μM SAHA): had no effect | anti-proliferative effect (RA-FLS [4]): concentration-dependent anti-proliferative effects | formation of M-CSF/RANKL-induced TRAP-positive cells (RAW264.7 macrophages): had no effect; also recorded: had little effect | NO production (RAW264.7 cells): inhibited | PGE2 production (RAW264.7 cells): inhibited | IL-6 production ([5]; IL-1β 10 ng/ml 24 h): inhibited | PGE2 production ([5]; LPS 25 ng/ml 24 h): inhibited | expression of p21 (p21 in RA-FLS; RA-FLS 24 h, 1 μM MPT0G009 or 3 μM SAHA, flow cytometry or western blot): significantly increased | p21 (flow cytometry) (p21 in RA-FLS; RA-FLS, 3 μM, 24 h, Figure 1h): 96.42% | subG1 peak (cellular apoptosis) (RA-FLS [6]): did not increase the subG1 peak | cell cycle arrest (RA-FLS [6]; all concentrations): G0/G1 phase arrest | expression of the osteoclast-specific marker (CD51/61) [7]: had no effect
